What was measured:
Assay in all cases: relative viability (nuclei count vs DMSO), 5 days (fraction); higher = more cells survive
NCI-H2126 = test system: NCI-H2126
How it was run: (§1)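 Relative viability equals treated-well nuclei counts divided by vehicle-well nuclei counts. Counts came from 4× images of lung cancer cell lines grown in 1536-well plates for 5 days after pin-tool dosing on the day after seeding. Dosing used one drug alone or a fixed anchor-drug dose plus five library-drug doses (not always all listed) in √10 steps, and values are medians of duplicate plates.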

NCI-H522 = test system: NCI-H522
How it was run: as §1

EKVX = test system: EKVX
How it was run: as §1

A549 = test system: A549
How it was run: as §1

NCI-H1648 = test system: NCI-H1648
How it was run: as §1

ABC-1 = test system: ABC-1
How it was run: as §1

IA-LM = test system: IA-LM
How it was run: as §1

Row | Compound | relative viability (NCI-H2126; first compound 0.01 µM) | relative viability (NCI-H2126; first compound 0.03162 µM) | relative viability (NCI-H2126; first compound 0.1 µM) | relative viability (NCI-H2126; first compound 0.3162 µM) | relative viability (NCI-H2126; first compound 1 µM) | relative viability (NCI-H522; first compound 0.01 µM) | relative viability (NCI-H522; first compound 0.03162 µM) | relative viability (NCI-H522; first compound 0.1 µM) | relative viability (NCI-H522; first compound 0.3162 µM) | relative viability (NCI-H522; first compound 1 µM) | relative viability (EKVX; first compound 0.01 µM) | relative viability (EKVX; first compound 0.03162 µM) | relative viability (EKVX; first compound 0.1 µM) | relative viability (EKVX; first compound 0.3162 µM) | relative viability (EKVX; first compound 1 µM) | relative viability (NCI-H1648; first compound 0.01 µM) | relative viability (NCI-H1648; first compound 0.03162 µM) | relative viability (NCI-H1648; first compound 0.1 µM) | relative viability (NCI-H1648; first compound 0.3162 µM) | relative viability (NCI-H1648; first compound 1 µM) | other results
1 | NC(=O)Nc1cc(-c2cccc(F)c2)sc1C(=O)N[C@H]1CCCNC1 [AZD7762] + Nc1ncn([C@H]2C[C@H](O)[C@@H](CO)O2)c(=O)n1 [Decitabine] (partner 2 µM) | 0.562 | 0.628 | 0.656 | 0.789 | 0.741 | 0.668 | 0.709 | 0.714 | 0.689 | 0.686 | 0.456 | 0.388 | 0.326 | 0.395 | 0.37 | 0.512 | 0.671 | 0.415 | 0.462 | 0.437 | relative viability (A549; first compound 0.01 µM): 0.305; relative viability (A549; first compound 0.03162 µM): 0.252; relative viability (A549; first compound 0.1 µM): 0.27; relative viability (A549; first compound 0.3162 µM): 0.281; relative viability (A549; first compound 1 µM): 0.202; relative viability (ABC-1; first compound 0.01 µM): 1.07; relative viability (ABC-1; first compound 0.03162 µM): 1.11; relative viability (ABC-1; first compound 0.1 µM): 0.989; relative viability (ABC-1; first compound 0.3162 µM): 0.909; relative viability (ABC-1; first compound 1 µM): 0.617
2 | NC(=O)Nc1cc(-c2cccc(F)c2)sc1C(=O)N[C@H]1CCCNC1 [AZD7762] + O=C(CCCCCCC(=O)Nc1ccccc1)NO [Vorinostat] (partner 1 µM) | 0.688 | 0.867 | 0.735 | 0.773 | 0.775 | 0.869 | 0.923 | 0.912 | 0.624 | 0.783 | 0.78 | 0.758 | 0.707 | 0.794 | 0.461 | 0.735 | 0.488 | 0.45 | 0.472 | 0.421 | relative viability (IA-LM; first compound 0.01 µM): 1.04; relative viability (IA-LM; first compound 0.03162 µM): 0.984; relative viability (IA-LM; first compound 0.1 µM): 1.04; relative viability (IA-LM; first compound 0.3162 µM): 0.74; relative viability (IA-LM; first compound 1 µM): 1.17; relative viability (ABC-1; first compound 0.01 µM): 0.847; relative viability (ABC-1; first compound 0.03162 µM): 1.47; relative viability (ABC-1; first compound 0.1 µM): 1.04; relative viability (ABC-1; first compound 0.3162 µM): 0.976; relative viability (ABC-1; first compound 1 µM): 0.314
3 | CC1(C)CCC(c2ccc(Cl)cc2)=C(CN2CCN(c3ccc(C(=O)NS(=O)(=O)c4ccc(N[C@H](CCN5CCOCC5)CSc5ccccc5)c(S(=O)(=O)C(F)(F)F)c4)cc3)CC2)C1 [Navitoclax] + CC(=O)Nc1cccc(-n2c(=O)n(C3CC3)c(=O)c3c(Nc4ccc(I)cc4F)n(C)c(=O)c(C)c32)c1 [Trametinib] (partner 0.02 µM) |  |  |  |  |  |  |  |  |  |  |  |  |  |  |  |  |  |  |  |  | relative viability (NCI-H2126; first compound 0.005 µM): 0.554; relative viability (NCI-H2126; first compound 0.01581 µM): 0.639; relative viability (NCI-H2126; first compound 0.05 µM): 0.638; relative viability (NCI-H2126; first compound 0.1581 µM): 0.524; relative viability (NCI-H2126; first compound 0.5 µM): 0.561; relative viability (NCI-H522; first compound 0.005 µM): 0.753; relative viability (NCI-H522; first compound 0.01581 µM): 0.782; relative viability (NCI-H522; first compound 0.05 µM): 0.778; relative viability (NCI-H522; first compound 0.1581 µM): 0.627; relative viability (NCI-H522; first compound 0.5 µM): 0.725; relative viability (EKVX; first compound 0.005 µM): 0.292; relative viability (EKVX; first compound 0.01581 µM): 0.457; relative viability (EKVX; first compound 0.05 µM): 0.334; relative viability (EKVX; first compound 0.1581 µM): 0.376; relative viability (EKVX; first compound 0.5 µM): 0.333; relative viability (NCI-H1648; first compound 0.005 µM): 0.541; relative viability (NCI-H1648; first compound 0.01581 µM): 0.427; relative viability (NCI-H1648; first compound 0.1581 µM): 0.453; relative viability (NCI-H1648; first compound 0.5 µM): 0.402
